Results on 17 molecules are retold here after patent US10898504B2, “Substituted nucleoside analogues for use as PRMT5 inhibitors” (Janssen Pharmaceutica NV, priority 2016, dated 2021).

One experiment addresses T1, PRMT5-MEP50 enzyme (Homo sapiens, UniProt O14744).
T1 construct: One virus expresses full length human PRMT5 with Flag-tag at N-terminus
Description: In vitro assay (Assay 1): PRMT5-MEP50 high throughput mass spectrometer assay, inhibition of SAH formation. Type of experiment: biochemical. The following applies: individual measurements shown, read-out: pIC50 Assay 1 (converted). The method, boiled down: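 Flag-PRMT5/His-MEP50 full-length human complex (Sf9-expressed), 10 nM, with 1 μM SAM and 0.3 μM histone H2A in 20 mM Tris-HCl pH 8.5, 50 mM NaCl, 5 mM MgCl2, 1 mM DTT; 60 min at 30 °C, quenched with 1% formic acid. SAH quantified by RapidFire MS; IC50 from 11-point 1:2 series fitted to four-parameter Hill equation.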

The subject of the next experiment is A549 cells. Description: PD assay (Assay 2): inhibition of nuclear symmetric Arginine dimethylation (SYM10 immunohistochemistry) in A549 cells. Type of experiment: cell-based. The following applies: individual measurements shown; for IC50: Homo sapiens, A549, PD assay in A549 cells, read-out: pIC50 Assay 2 (converted); for pIC50 Assay 2: PD assay in A549 cells. The method, boiled down:
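A549 cells dosed with a nine-point series (0.2% DMSO) for 48 h at 37° C, then fixed and immunostained with SYM10 anti-symmetric-dimethylarginine antibody, plus Hoechst and CellMask counterstains for high-content imaging. Nuclear signal normalized between DMSO and 10 μM reference-compound controls to derive IC50/pIC50.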

The target in a further experiment is PRMT5 (Homo sapiens, UniProt O14744). The following applies: Chan-Penebre et al., Nat Chem Biol 2015; cited from earlier work.
The test system of another experiment is MCL xenograft models. The following applies: multiple MCL xenograft models; Chan-Penebre et al., Nat Chem Biol 2015; cited from earlier work.

Several values for one entry are separate records, joined by “and”; a condition that tells them apart may be missing. Equal entries are not always repeated. Where only a bound is given, the exact number is not on record here.

T1 sequence (O14744 whole entry): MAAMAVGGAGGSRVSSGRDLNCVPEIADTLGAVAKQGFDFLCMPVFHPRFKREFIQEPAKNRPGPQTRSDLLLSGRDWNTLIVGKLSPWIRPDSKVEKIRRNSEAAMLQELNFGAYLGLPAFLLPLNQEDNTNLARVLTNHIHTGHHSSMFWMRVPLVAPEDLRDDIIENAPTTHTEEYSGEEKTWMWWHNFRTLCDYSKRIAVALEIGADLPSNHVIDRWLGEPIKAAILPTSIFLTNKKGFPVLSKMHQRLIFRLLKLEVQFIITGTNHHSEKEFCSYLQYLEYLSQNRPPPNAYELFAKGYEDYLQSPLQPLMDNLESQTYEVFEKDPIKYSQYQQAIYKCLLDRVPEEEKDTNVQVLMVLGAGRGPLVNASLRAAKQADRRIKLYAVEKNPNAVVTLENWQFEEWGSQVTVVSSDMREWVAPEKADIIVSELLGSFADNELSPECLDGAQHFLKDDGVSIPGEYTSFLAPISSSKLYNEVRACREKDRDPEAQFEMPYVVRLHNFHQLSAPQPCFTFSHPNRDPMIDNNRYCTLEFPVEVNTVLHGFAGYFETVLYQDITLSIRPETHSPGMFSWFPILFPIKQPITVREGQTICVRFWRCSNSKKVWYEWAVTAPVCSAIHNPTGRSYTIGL
T1 sequence (Q9BQA1 whole entry partner): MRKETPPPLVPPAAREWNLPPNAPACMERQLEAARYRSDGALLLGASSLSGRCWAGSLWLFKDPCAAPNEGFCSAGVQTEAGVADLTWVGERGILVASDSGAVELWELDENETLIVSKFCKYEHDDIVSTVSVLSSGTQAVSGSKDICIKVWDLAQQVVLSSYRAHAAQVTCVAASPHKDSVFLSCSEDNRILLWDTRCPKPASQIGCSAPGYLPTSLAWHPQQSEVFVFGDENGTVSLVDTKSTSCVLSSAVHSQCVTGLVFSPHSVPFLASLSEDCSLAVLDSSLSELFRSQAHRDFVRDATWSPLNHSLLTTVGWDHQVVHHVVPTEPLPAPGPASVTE
Sequence of PRMT5 (O14744 whole entry, species assumed): as the sequence (O14744 whole entry) above
Sequence of PRMT5 (Q9BQA1 whole entry partner, species assumed): as the sequence (Q9BQA1 whole entry partner) above

As for `NCC[C@@H]1CCCN1C[C@H]1O[C@@H](n2cnc3c(N)ncnc32)[C@H](O)[C@@H]1O` [Compound 59], the IC50 is 0.0447 µM at PRMT5-MEP50 enzyme and 2.4 µM in the experiment with A549 cells.
Regarding `CN1CCC2(CCCN2C[C@H]2O[C@@H](n3ccc4c(N)ncnc43)[C@H](O)[C@@H]2O)CC1` [Compound 168], the IC50 at PRMT5-MEP50 enzyme is 0.0263 µM and 0.0174 µM and 0.00851 µM; with A549 cells, 0.204 µM. The “pIC50 Assay 2” value with A549 cells was ~6.64 and ~6.7.
Consider `Nc1ncnc2c1ccn2[C@@H]1O[C@H](CN2CCC23CCNCC3)[C@@H](O)[C@H]1O` [Compound 112], for which the IC50 on PRMT5-MEP50 enzyme is 0.0331 µM; in the experiment on A549 cells, approximately 1.78 µM.
For `CN1CCC2(CC1)CC(F)(F)CN2C[C@H]1O[C@@H](n2ccc3c(Cl)ncnc32)[C@H](O)[C@@H]1O` [Compound 188], in that order: 0.372 µM and 0.708 µM.
Take `Nc1ncnc2c1ccn2[C@@H]1O[C@H](CN2CCCC3(CCCCN3)C2)[C@@H](O)[C@H]1O` (single isomer, unassigned) [Compound 36]: the IC50 on PRMT5-MEP50 enzyme was 1.91 µM. Further, the “pIC50 Assay 2” value in the experiment on A549 cells is approximately 5.13.
In the case of `Nc1ncnc2c1ccn2[C@@H]1O[C@H](CN2CCC3(CNCCC3(F)F)C2)[C@@H](O)[C@H]1O` (some centres unmarked) [Compound 38], the IC50 at PRMT5-MEP50 enzyme is 1.62 µM; in the experiment on A549 cells it was 3.89 µM.
For `CC(C)C(=O)O[C@@H]1[C@@H](CN2CC(F)(F)CC23CCNCC3)C[C@@H](n2ccc3c(N)ncnc32)[C@@H]1OC(=O)C(C)C` [Compound 164], in that order: more than 10 µM and approximately 6.46 µM.
For `CN1CCC2(CCCN2C[C@H]2O[C@@H](n3cnc4c(N)ncnc43)[C@H](O)[C@@H]2O)CC1` [Compound 1], in that order: 0.219 µM and 7.24 µM.
For `Nc1ncnn2c([C@@H]3O[C@H](CN4CC(F)(F)C[C@H]4CCN4CCCC4)[C@@H](O)[C@H]3O)ccc12` [Compound 155], in that order: 2.51 µM and more than 10 µM.
Consider `Nc1ncnn2c([C@@H]3O[C@H](CN4CCCC45CCN(CC(F)(F)F)CC5)[C@@H](O)[C@H]3O)ccc12` [Compound 141], for which the IC50 on PRMT5-MEP50 enzyme and in the experiment with A549 cells was more than 10 µM in each case.
As to `Cc1nc(N)c2ccn([C@@H]3O[C@H](CN4CCCC45CCN(C)CC5)[C@@H](O)[C@H]3O)c2n1` [Compound 30], the IC50 was 0.2 µM on PRMT5-MEP50 enzyme and 1.74 µM in the experiment on A549 cells.
Take `O=C(NC[C@H](O)CN1CCc2ccccc2C1)c1cc(NC2COC2)ncn1` [EPZ015666]: the “potency as PRMT5 inhibitor” value on PRMT5 is “sub-nanomolar potent”. In addition, in the experiment on MCL xenograft models, the anti-tumour activity entry is on record as “anti-tumour activity”.
Regarding `NCCC1CCN(C[C@H]2O[C@@H](n3ccc4c(N)ncnc43)[C@H](O)[C@@H]2O)C1` (some centres unmarked) [Compound 55], the values for the IC50 on PRMT5-MEP50 enzyme and in the experiment on A549 cells were 0.309 µM and 6.17 µM, respectively.
For `Nc1ncnn2c([C@@H]3O[C@H](CN4CC(F)(F)CC45CCN(CCc4ccc(F)cc4)CC5)[C@@H](O)[C@H]3O)ccc12` [Compound 143], in that order: 7.24 µM and 1.58 µM.
With `Nc1ncnc2c1c(F)cn2[C@@H]1O[C@H](CN2CCCC23CCNCC3)[C@@H](O)[C@H]1O` [Compound 24], the IC50 is 0.0117 µM on PRMT5-MEP50 enzyme and approximately 0.0676 µM in the experiment with A549 cells.
For `Nc1ncnc2c1ncn2[C@@H]1O[C@H](CN2CCC23CCNC3)[C@@H](O)[C@H]1O` (some centres unmarked) [Compound 87], in that order: 2.4 µM and more than 10 µM.
`Nc1ncnc2c1ccn2[C@@H]1O[C@H](CN2CCCC23CCCNC3)[C@@H](O)[C@H]1O` (single isomer, unassigned) [Compound 119]: the IC50 on PRMT5-MEP50 enzyme is 0.155 µM. For the same molecule, the “pIC50 Assay 2” value with A549 cells is recorded as approximately 5.97.
